Measurements: ChEMBL document CHEMBL5727676, “Bromodomain inhibitors” (2020)

What was measured:
[1] = biological target: T1, Bromodomain-containing protein 4 (Homo sapiens, UniProt O60885); assay: (§1) TR-FRET Assay: Compound dilution series were prepared in DMSO via an approximately 3-fold serial dilution. Compound dilutions were added directly into white, low-volume assay plates (Perkin Elmer Proxiplate 384 Plus#6008280) using a Labcyte Echo in conjunction with Labcyte Access and Thermo Multidrop CombinL robotics. Compounds were then suspended in eight microliters (μL) of assay buffer (20 mM Sodium Phosphate, pH 6.0, 50 mM NaCl, 1 mM Ethylenediaminetetraacetic acid disodium salt dihydrate, 0.01% Triton X-100, 1 mM DL-Dithiothreitol) containing His-tagged bromodomain, Europium-conjugated anti-His antibody (Invitrogen PV5596) and Alexa-647-conjugated probe.The final concentration of 1× assay mixture contained 2% DMSO, 12 nM His tagged BRD4 (BDI_K57-E168) and 100 nM probe or 4 nM His tagged BRD4 (BDII_E352-M457) and 30 nM probe, and 1 nM Europium-conjugated anti-His-tag antibody, and compound concentrations in the range of: 49.02 μM-0.61 nM or 0.98 μM-0.15 nM.After a one-hour equilibration at room temperature, TR-FRET ratios were determined using an Envision multilabel plate reader (Ex 340, […]).
[2] = biological target: T1, Bromodomain-containing protein 4; assay: as §1; remark: listed apart in the source

| SMILES | Ki [1] [nM] | Ki [2] [nM] |
| --- | --- | --- |
| Cc1cccc(C)c1Oc1ccc(C(C)(O)CC(C)C)cc1-c1cn(C)c(=O)c2[nH]c(C(=O)NC(C)(C)C)cc12 (centres undefined) | 6690 | 6.6 |
| Cc1cc(F)cc(Cl)c1Oc1ccc(C(C)(C)O)cc1-c1cn(C)c(=O)c2[nH]c(C(=O)NC3(C)CC3(F)F)cc12 (centres undefined) | 1770 | 7.4 |
